Tests used:
[1] = molecular target: T1, androgen receptor (AR-LBD) (Rattus norvegicus, UniProt P15207); test: Evaluation of androgen receptor affinity (PolarScreen Androgen Receptor Competitor Assay Kit, Red; fluorescence polarization); details: 22° C. for 5 hours, relative to binding rate of 1 μM DHT, read-out: AR affinity (pEC50) (converted)
T1 construct: 5 μL of 2×AR-LBD/Fluoromone AL Red Complex contained in the kit; purchased Invitrogen
T1 sequence (P15207 651-882 limits assumed): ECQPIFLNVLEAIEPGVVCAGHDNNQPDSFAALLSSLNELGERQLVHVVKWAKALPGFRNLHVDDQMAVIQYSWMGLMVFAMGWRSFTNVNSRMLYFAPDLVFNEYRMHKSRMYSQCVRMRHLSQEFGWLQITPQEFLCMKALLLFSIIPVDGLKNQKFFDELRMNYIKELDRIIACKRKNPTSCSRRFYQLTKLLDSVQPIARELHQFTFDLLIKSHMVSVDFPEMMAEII
In short: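 Duplicate wells of test compound were mixed with the kit's rat AR-LBD–Fluoromone AL Red tracer complex and left 5 hours at 22 °C before polarization was read. A 4-parameter fit gave pEC50, with binding rate referenced to 1 μM dihydrotestosterone.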

[2] = molecular target: T2, human androgen receptor (Homo sapiens, UniProt P10275); test: Reporter assay of an androgen receptor responsive sequence (luciferase, transiently transfected HEK293 cells); assay type: cell-based; details: 24 hours incubation, relative to activity of 100 nM DHT, read-out: AR transcriptive activity (pEC50) (converted)
T2 construct: expressed in transfected cells; host or cells: HEK293
T2 sequence (P10275 1-920): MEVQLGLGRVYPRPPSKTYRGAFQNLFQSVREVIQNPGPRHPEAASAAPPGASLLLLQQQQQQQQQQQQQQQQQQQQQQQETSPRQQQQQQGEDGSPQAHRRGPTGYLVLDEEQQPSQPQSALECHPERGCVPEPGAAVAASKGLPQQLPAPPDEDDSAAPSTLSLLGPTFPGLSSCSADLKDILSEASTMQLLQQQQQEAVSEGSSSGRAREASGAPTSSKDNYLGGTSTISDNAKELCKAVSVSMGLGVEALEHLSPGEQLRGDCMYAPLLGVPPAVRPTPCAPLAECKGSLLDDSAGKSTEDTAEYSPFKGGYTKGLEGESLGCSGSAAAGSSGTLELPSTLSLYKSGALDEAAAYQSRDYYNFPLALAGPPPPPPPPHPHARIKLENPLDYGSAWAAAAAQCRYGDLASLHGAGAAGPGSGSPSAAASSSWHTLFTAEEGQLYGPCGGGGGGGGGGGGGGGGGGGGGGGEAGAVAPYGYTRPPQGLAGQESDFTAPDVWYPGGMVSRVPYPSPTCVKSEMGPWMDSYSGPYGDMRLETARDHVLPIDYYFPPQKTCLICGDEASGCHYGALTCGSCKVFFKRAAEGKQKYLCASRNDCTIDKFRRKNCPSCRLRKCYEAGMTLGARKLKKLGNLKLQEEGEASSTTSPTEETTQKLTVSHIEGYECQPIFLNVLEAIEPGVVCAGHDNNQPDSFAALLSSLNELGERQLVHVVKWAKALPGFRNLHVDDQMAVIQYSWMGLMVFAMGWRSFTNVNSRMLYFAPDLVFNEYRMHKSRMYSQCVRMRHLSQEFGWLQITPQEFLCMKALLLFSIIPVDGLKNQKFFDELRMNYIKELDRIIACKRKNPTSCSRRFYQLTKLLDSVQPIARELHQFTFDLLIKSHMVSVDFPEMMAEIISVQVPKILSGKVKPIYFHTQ
In short: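 Agonism scored as pEC50, fitted by 4-parameter curve against the response to 100 nM DHT, from dual-luciferase readout after 24 h compound treatment. Cells were HEK293 co-transfected (3 h) with human AR expression vector, androgen-responsive firefly reporter and Renilla control, in charcoal-stripped serum.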

SMILES | EC50 [1] | EC50 [2]
Cc1sc(N(CCCOCc2ccccc2)c2ccc(C#N)cc2)nc1C(=O)NS(C)(=O)=O [Compound 359, 2-[N-(3-benzyloxypropyl)-4-cyano-anilino]-5-methyl-N-methylsulfonyl-thiazole-4-carboxamide] | 126 nM | > 10000 nM
Cc1sc(N(Cc2ccc(OC(F)F)cc2)c2ccc(C(F)(F)F)nc2)nc1C(=O)NS(C)(=O)=O [Compound 472, 2-[[4-(difluoromethoxy)phenyl]methyl-[6-(trifluoromethyl)-3-pyridyl]amino]-5-methyl-N-methylsulfonyl-thiazole-4-carboxamide] | 126 nM | 398 nM
Cc1sc(N(CCCOc2ccccc2)c2ccc(C#N)cc2)nc1C(=O)NS(C)(=O)=O [Compound 368, 2-[4-cyano-N-(3-phenoxypropyl)anilino]-5-methyl-N-methylsulfonyl-thiazole-4-carboxamide] | 100 nM | > 10000 nM
CSc1ccc(CN(c2ccc(C#N)cc2)c2nc(C(=O)NS(C)(=O)=O)c(C)s2)cc1 [Compound 11, 2-[4-cyano-N-[(4-methylsulfanylphenyl)methyl]anilino]-5-methyl-N-methylsulfonyl-thiazole-4-carboxamide] | 25.1 nM | 50.1 nM
Cc1sc(N(Cc2ccc(Cl)c(Cl)c2)c2ccc(C#N)cc2)nc1C(=O)NS(C)(=O)=O [Compound 100, 2-[4-cyano-N-[(3,4-dichlorophenyl)methyl]anilino]-5-methyl-N-methylsulfonyl-thiazole-4-carboxamide] | 31.6 nM | 15.8 nM
Cc1sc(N(Cc2ccc(OC(F)F)cc2)c2ccc(C#N)cc2)nc1C(=O)NS(C)(=O)=O [Compound 41, 2-[4-cyano-N-[[4-(difluoromethoxy)phenyl]methyl]anilino]-5-methyl-N-methylsulfonyl-thiazole-4-carboxamide] | 31.6 nM | 31.6 nM
Cc1sc(N(Cc2ccsc2)c2ccc(C#N)cc2)nc1C(=O)NS(C)(=O)=O [Compound 85, 2-[4-cyano-N-(3-thienylmethyl)anilino]-5-methyl-N-methylsulfonyl-thiazole-4-carboxamide] | 200 nM | 316 nM

Next, values leading:

EC50 [1] | EC50 [2] | SMILES
20 nM | 5010 nM | CS(=O)(=O)NC(=O)c1nc(N(Cc2ccc(OC(F)F)cc2)c2ccc(C#N)cc2)sc1C1CC1 [Compound 662, 2-[4-cyano-N-[[4-(difluoromethoxy)phenyl]methyl]anilino]-5-cyclopropyl-N-methylsulfonyl-thiazole-4-carboxamide]
25.1 nM | 316 nM | Cc1sc(N(Cc2cc(OC(F)F)ccc2F)c2ccc(C#N)cc2)nc1C(=O)NS(C)(=O)=O [Compound 520, 2-[4-cyano-N-[[5-(difluoromethoxy)-2-fluoro-phenyl]methyl]anilino]-5-methyl-N-methylsulfonyl-thiazole-4-carboxamide]
63.1 nM | 1260 nM | COCCCS(=O)(=O)NC(=O)c1nc(N(Cc2ccc(F)cc2Cl)c2ccc(C#N)cc2)sc1C [Example 192, 2-[N-[(2-chloro-4-fluoro-phenyl)methyl]-4-cyano-anilino]-N-(3-methoxypropylsulfonyl)-5-methyl-thiazole-4-carboxamide]
25.1 nM | 31.6 nM | Cc1sc(N(Cc2ccc(C(F)(F)F)c(F)c2)c2ccc(C#N)cc2)nc1C(=O)NS(C)(=O)=O [Example 167, 2-[4-cyano-N-[[3-fluoro-4-(trifluoromethyl)phenyl]methyl]anilino]-5-methyl-N-methylsulfonyl-thiazole-4-carboxamide]
39.8 nM | 794 nM | COCCCOc1ccc(CN(c2ccc(C#N)cc2)c2nc(C(=O)NS(C)(=O)=O)c(C)s2)cc1 [Compound 582, 2-[4-cyano-N-[[4-(3-methoxypropoxy)phenyl]methyl]anilino]-5-methyl-N-methylsulfonyl-thiazole-4-carboxamide]
